This passage reports IC50 results from patent publication US20230322785A1, “ADENOSINE A2A AND A2B RECEPTOR DUAL ANTAGONISTS FOR IMMUNO-ONCOLOGY” (Merck Sharp & Dohme LLC, priority 2020, published 2023).

In this experiment the target is T1, human A2A adenosine receptor (Homo sapiens, UniProt P29274).
T1 construct: expressed in transfected cells; host or cells: HEK293 or CHO cells
The experiment is described as follows: A2A binding affinity, Method (B): scintillation proximity assay (SPA) with [3H]SCH58261. The note with it: membranes of HEK293 or CHO cells expressing the human receptor. An excerpt:
Method (A) describes the procedure used to measure A2A binding affinity using radioligand binding. Method (B) describes the procedure used to measure A2A binding affinity using SPA technology. The method used to measure A2B binding affinity is also described below. The method used to determine the A2A IC50 value reported for each compound in the table is indicated next to the reported value. The A2B IC50 value measured using the A2B binding affinity assay is shown in the table next to the compound under the corresponding A2A value.
The A2A receptor affinity binding assay measured the amount of binding of a tritiated ligand with high affinity for the A2A adenosine receptor to membranes made from HEK293 or CHO cells recombinantly expressing the human A2A adenosine receptor, in the presence of varying concentrations of a compound of the invention. The data were generated using either filtration binding or a homogenous scintillation proximity assay (SPA).
Method (B): Measurement of A2A Binding Affinity Using SPA
Binding affinity using SPA was conducted as follows. Test compounds (50 nL) were dispensed into individual wells of a 384-well OptiPlate™ well (Perkin Elmer) by Echo® acoustic liquid transfer (Labcyte). 20 µL of 1.25 nM [^3H] SCH58261 ((7-(2-phenylethyl)-5-amino-2-(2-furyl)-pyrazolo-[4,3-e]-1,2,4-triazolo[1,5-c]pyrimidine)) in DPBS assay buffer (Dulbecco’s phosphate buffered saline without calcium and magnesium, ThermoFisher Scientific, Cat. No. A1285601) supplemented with 10 mM MgCl2 was added. A2A receptor-expressing membranes were incubated with 20 µg/mL adenosine deaminase (Roche, Cat. No. 10 102 105 001) for 15 min at room temperature. The receptor-expressing membranes were then combined with wheat germ agglutinin-coated yttrium silicate SPA beads (GE Healthcare, Cat. No. RPNQ0023) in a ratio of […] (w/w) and incubated for 30 min at room temperature. 30 µL of the membrane/bead mixture (0.25 µg and 25 µg per well respectively) were added to the 384-well OptiPlate™ well. To define total and non-specific binding, wells containing 1% DMSO or 1 µM CGS 15943 (Tocris Bioscience, Cat. No. 1699) respectively were also included in the experiment. The plate was incubated for 1 h at room temperature with agitation. The assay plate was then incubated for an h to allow the beads to settle before data were collected using a TopCount® (Perkin Elmer) scintillation counter. After normalization to total and non-specific binding, the percent effect at each compound concentration was calculated. The plot of percent effect versus the log of compound concentration was analyzed electronically using a 4-parameter logistic fit based on the Levenberg-Marquardt algorithm to generate IC50 values.

Molecules are shown by their SMILES.

T1 sequence (P29274 whole entry): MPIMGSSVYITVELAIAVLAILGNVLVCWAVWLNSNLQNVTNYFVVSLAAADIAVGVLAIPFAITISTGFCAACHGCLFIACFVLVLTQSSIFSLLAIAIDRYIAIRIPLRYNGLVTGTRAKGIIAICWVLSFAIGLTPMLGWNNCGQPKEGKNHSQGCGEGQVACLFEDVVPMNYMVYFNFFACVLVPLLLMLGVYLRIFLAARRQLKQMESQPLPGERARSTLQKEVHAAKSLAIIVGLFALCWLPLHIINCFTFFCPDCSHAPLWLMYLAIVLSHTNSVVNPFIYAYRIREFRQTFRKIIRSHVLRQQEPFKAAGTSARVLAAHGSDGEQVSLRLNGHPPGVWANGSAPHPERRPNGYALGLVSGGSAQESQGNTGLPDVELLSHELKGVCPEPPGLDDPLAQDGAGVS

The IC50 is the concentration that inhibits the measured activity by half. Low readings indicate greater potency in that assay, high ones weaker potency in that assay. `COc1cccc2c1nc(N)n1nc(CN(Cc3ccc(C(F)(F)F)cc3)CC(C)C)nc21` [Example 15.4, 2-((isobutyl(4-(trifluoromethyl)benzyl)amino)methyl)-7-methoxy-[1,2,4]triazolo[1,5-c]quinazolin-5-amine] showed an IC50 of 4.2 nM.
The value for `COc1cccc2c1nc(N)n1nc(CC(=O)N[C@@H]3CCOc4cc(F)ccc43)nc21` [Example 4.6, (R)-2-(5-amino-7-methoxy-[1,2,4]triazolo[1,5-c]quinazolin-2-yl)-N-(7-fluorochroman-4-yl)acetamide] was 2 nM.
The value for `COc1cccc2c1nc(N)n1nc(CN(Cc3ccc(NC(=O)C(C)(C)C)nc3)CC3CC3)nc21` [Example 16.9] was 5.2 nM.
Regarding `COc1cccc2c1nc(N)n1nc(CNCC3CCN(c4ncc(F)cn4)CC3)nc21` [Example 14.3, 2-((((1-(5-fluoropyrimidin-2-yl)piperidin-4-yl)methyl)amino)methyl)-7-methoxy-[1,2,4]triazolo[1,5-c]quinazolin-5-amine], the IC50 worked out at 10 nM.
The value for `COc1cccc2c1nc(N)n1nc(CN(Cc3ccc(N4CCOCC4)nc3)CC3CC3)nc21` [Example 16.4, 2-(((cyclopropylmethyl)((6-morpholinopyridin-3-yl)methyl)amino)methyl)-7-methoxy-[1,2,4]triazolo[1,5-c]quinazolin-5-amine] was 10.9 nM; that for `COc1cccc2c1nc(N)n1nc(CN(Cc3ncco3)CC3CC3)nc21` [Example 16.11, 2-(((cyclopropylmethyl)(oxazol-2-ylmethyl)amino)methyl)-7-methoxy-[1,2,4]triazolo[1,5-c]quinazolin-5-amine] was 9.4 nM; that for `COc1cccc2c1nc(N)n1nc(CN(Cc3ccccn3)CC3CC3)nc21` [Example 16.1, 2-(((cyclopropylmethyl)(pyridin-2-ylmethyl)amino)methyl)-7-methoxy-[1,2,4]triazolo[1,5-c]quinazolin-5-amine] was 12.8 nM.
The value for `COc1cccc2c1nc(N)n1nc(CCNCC(C)(F)F)nc21` [Example 23.3, 2-(2-((2,2-difluoropropyl)amino)ethyl)-7-methoxy-[1,2,4]triazolo[1,5-c]quinazolin-5-amine] was 12.2 nM; that for `COc1cccc2c1nc(N)n1nc(CN(C)c3cccc(Br)n3)nc21` [Example 10.11, 2-(((6-bromopyridin-2-yl)(methyl)amino)methyl)-7-methoxy-[1,2,4]triazolo [1,5-c]quinazolin-5-amine] was 2.2 nM.
`CCOC(=O)CN(Cc1nc2c3cccc(OC)c3nc(N)n2n1)CC1CC1` [Entry 17.2] returned an IC50 of 13 nM.
Molecule `COc1cccc2c1nc(N)n1nc(CCCNCc3ccc(C(F)(F)F)cc3)nc21` [Example 10.6, 7-methoxy-2-(3-((4-(trifluoromethyl)benzyl)amino)propyl)-[1,2,4]triazolo[1,5-c]quinazolin-5-amine] came in with an IC50 of 8.7 nM.
`COc1ccc(CN(Cc2nc3c4cccc(OC)c4nc(N)n3n2)CC2CC2)cc1` [Example 16.14, 2-(((cyclopropylmethyl)(4-methoxybenzyl)amino)methyl)-7-methoxy-[1,2,4]triazolo[1,5-c]quinazolin-5-amine] returned a concentration for half-maximal inhibition (IC50) of 7.2 nM.
With `COc1cccc2c1nc(N)n1nc(CNCc3ccc(S(F)(F)(F)(F)F)cc3)nc21` [Example 8.7, 7-methoxy-2-(((4-(pentafluoro-λ^6-sulfanyl)benzyl)amino)methyl)-[1,2,4]triazolo[1,5-c]quinazolin-5-amine] the figure was 6.4 nM; with `COc1cccc2c1nc(N)n1nc(CCN[C@H](C)c3ccc(C(F)(F)F)cc3)nc21` [Example 22.4, (R)-7-methoxy-2-(2-((1-(4-(trifluoromethyl)phenyl)ethyl)amino)ethyl)-[1,2,4]triazolo[1,5-c]quinazolin-5-amine], 15.9 nM; with `C=CCN(Cc1ccc(C(F)(F)F)cc1)Cc1nc2c3cccc(OC)c3nc(N)n2n1` [Example 21.1, 2-((allyl(4-(trifluoromethyl)benzyl)amino)methyl)-7-methoxy-[1,2,4]triazolo[1,5-c]quinazolin-5-amine], 11.1 nM.
